{"source": "paper PMC4232301", "about": "(Organic & biomolecular chemistry, 2012)", "biological_target": "[KS6AT6] (DEBS module 6 ketosynthase-acyltransferase didomain) (Saccharopolyspora erythraea, UniProt Q03133)", "sequence (Q03133 1475-2340 limits assumed)": "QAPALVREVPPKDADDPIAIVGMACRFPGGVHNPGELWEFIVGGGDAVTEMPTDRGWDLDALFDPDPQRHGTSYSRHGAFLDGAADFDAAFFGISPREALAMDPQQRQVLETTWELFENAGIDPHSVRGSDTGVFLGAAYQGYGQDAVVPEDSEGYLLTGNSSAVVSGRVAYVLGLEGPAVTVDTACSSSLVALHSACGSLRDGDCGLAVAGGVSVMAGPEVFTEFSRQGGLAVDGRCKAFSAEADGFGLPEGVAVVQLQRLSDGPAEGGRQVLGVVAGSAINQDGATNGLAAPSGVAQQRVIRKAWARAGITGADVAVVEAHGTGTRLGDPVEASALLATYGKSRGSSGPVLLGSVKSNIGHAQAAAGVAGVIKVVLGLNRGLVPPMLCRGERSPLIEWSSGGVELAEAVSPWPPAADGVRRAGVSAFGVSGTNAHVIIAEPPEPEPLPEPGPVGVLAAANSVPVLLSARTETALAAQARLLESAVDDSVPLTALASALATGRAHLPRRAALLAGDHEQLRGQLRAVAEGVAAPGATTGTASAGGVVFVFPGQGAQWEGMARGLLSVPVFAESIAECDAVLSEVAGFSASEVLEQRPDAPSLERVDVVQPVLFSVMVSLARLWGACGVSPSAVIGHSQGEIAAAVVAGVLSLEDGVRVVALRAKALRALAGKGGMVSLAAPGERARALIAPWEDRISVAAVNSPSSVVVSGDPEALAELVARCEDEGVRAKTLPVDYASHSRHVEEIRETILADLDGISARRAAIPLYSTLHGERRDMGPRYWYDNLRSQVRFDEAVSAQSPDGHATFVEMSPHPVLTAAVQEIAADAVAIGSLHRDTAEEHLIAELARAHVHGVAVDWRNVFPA", "assay": "LC-MS of tryptic digest, methylmalonyl transfer to holo-ACP2", "type": "biochemical", "conditions": "acyl acceptor purified holo-ACP2; AT domain; 30 min", "data": [{"smiles": "CC(C(=O)O)C(=O)SCCNC(=O)CCNC(=O)[C@H](O)C(C)(C)COP(=O)(O)OP(=O)(O)OC[C@H]1O[C@@H](n2cnc3c(N)ncnc32)[C@H](O)[C@@H]1OP(=O)(O)O", "note": "(stereo partly shown) [methylmalonyl-CoA]", "values": [{"measurement": "LC-MS of tryptic digest, methylmalonyl transfer to holo-ACP2", "value": "purified ACP remains competent for AT-ACP methylmalonate transfer"}]}]}
